Laboratory results from ChEMBL document CHEMBL4152386, “Discovery of a Novel Inhaled PI3Kδ Inhibitor for the Treatment of Respiratory Diseases” (J Med Chem, 2018).
Converted amounts (≈) assume the structure as drawn.

What was measured:
[1] = molecular target: T1, Phosphatidylinositol 4,5-bisphosphate 3-kinase catalytic subunit delta isoform (Mus musculus, UniProt O35904); experiment: Inhibition of mouse ABD-truncated p110delta catalytic subunit (unknown origin) expressed in Sf9 cells using diC8-PIP2 substrate incubated for 1 hr by fluorescence polarization assay
T1 sequence (O35904 whole entry): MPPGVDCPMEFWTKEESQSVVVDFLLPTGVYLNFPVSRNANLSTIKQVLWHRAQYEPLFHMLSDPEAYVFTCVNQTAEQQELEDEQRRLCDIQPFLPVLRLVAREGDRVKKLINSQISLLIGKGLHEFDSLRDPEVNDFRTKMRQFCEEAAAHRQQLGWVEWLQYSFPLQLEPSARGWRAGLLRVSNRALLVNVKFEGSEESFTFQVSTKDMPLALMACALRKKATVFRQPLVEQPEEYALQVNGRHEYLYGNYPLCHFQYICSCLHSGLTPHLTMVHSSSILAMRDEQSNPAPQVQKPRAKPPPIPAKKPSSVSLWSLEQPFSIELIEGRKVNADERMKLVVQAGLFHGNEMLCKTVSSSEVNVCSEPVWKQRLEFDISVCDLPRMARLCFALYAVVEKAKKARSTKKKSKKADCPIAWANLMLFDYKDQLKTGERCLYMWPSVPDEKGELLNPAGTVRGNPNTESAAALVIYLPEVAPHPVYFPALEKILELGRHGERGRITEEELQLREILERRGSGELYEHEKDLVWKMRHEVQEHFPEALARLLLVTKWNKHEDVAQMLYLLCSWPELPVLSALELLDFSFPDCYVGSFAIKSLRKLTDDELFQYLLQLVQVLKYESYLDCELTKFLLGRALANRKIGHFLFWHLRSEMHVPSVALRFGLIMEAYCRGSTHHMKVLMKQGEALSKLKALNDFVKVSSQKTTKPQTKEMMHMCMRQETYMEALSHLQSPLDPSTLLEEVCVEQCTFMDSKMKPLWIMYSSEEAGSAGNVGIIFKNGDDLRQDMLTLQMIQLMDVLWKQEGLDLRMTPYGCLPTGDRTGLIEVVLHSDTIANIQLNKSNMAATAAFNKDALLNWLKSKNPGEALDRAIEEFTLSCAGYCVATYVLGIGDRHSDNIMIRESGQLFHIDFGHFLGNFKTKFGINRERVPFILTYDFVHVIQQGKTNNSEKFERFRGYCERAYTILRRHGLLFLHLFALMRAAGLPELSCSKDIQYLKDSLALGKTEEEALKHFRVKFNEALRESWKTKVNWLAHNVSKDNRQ

[2] = molecular target: PI3K p110 beta/p85 alpha (Homo sapiens, UniProt P42338)
Sequence of PI3K p110 beta/p85 alpha (P27986 whole entry): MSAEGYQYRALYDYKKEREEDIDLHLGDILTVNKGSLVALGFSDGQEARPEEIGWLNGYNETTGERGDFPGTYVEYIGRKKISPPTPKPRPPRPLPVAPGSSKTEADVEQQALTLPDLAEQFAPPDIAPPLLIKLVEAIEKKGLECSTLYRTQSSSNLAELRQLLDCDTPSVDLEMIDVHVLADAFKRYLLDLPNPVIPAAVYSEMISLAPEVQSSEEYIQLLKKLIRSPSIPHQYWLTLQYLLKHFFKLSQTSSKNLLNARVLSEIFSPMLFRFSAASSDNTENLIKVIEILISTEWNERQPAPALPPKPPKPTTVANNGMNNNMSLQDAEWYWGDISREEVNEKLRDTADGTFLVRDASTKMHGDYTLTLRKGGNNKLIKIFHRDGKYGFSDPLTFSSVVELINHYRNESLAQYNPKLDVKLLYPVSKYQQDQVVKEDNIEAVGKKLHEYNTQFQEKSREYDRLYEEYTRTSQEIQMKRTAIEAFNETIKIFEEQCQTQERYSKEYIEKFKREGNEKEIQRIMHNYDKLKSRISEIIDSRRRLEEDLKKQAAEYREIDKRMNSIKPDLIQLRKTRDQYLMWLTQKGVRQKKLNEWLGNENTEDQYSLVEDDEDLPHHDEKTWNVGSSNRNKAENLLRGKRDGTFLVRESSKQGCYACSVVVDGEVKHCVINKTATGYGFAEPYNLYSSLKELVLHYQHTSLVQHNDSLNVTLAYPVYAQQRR
Sequence of PI3K p110 beta/p85 alpha (P42338 whole entry): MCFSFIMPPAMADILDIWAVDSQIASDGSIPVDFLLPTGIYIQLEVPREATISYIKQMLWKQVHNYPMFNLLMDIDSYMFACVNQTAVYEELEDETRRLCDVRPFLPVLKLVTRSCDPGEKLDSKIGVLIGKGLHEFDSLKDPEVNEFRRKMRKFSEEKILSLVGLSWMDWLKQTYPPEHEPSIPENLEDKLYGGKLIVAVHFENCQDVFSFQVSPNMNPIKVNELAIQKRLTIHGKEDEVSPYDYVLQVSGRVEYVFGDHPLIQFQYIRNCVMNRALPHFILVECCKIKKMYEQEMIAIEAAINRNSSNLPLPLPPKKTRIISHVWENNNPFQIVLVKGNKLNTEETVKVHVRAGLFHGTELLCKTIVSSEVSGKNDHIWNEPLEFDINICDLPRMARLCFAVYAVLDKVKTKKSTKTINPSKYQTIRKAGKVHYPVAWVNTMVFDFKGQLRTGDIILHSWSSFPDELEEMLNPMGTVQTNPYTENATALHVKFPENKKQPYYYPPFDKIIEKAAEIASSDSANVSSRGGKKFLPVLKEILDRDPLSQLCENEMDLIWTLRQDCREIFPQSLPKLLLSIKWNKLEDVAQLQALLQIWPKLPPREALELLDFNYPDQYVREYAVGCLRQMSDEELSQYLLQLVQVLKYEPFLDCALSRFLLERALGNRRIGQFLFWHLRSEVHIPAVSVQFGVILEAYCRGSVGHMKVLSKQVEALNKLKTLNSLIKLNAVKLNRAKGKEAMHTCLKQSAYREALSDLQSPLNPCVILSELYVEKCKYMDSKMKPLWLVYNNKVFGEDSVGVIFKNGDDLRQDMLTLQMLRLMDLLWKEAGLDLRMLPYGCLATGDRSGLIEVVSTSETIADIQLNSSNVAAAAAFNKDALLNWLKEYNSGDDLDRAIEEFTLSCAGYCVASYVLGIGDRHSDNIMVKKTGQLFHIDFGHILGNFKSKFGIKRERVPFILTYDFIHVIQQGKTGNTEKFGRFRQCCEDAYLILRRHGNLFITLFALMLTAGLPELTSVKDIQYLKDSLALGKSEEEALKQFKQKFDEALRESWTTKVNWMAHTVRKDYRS
Description: Inhibition of recombinant human N-terminal His6-tagged full length p110beta/recombinant human full length p85alpha using PIP2 as substrate preincubated for 30 mins followed by substrate addition and HTRF assay

[3] = Drug metabolism in human liver microsomes assessed as disappearance of parent compound at 5 uM preincubated for 3 mins followed UDPG addition and measured after 120 mins by UPLC-MS/MS analysis; type: ADME, microsome; conditions: read-out: Drug metabolism
[4] = Cmax in Wistar rat plasma at 0.3 mg/kg, it administered as suspension; type: ADME, organism-based; design: dose 0.3 mg/kg; conditions: inhaled or intranasal
[5] = Half life in Wistar rat lung at 0.3 mg/kg, it administered as suspension; type: ADME, organism-based; conditions: inhaled or intranasal
[6] = tested on: Rattus norvegicus; experiment: Anti-inflammatory activity in Brown Norway rat model of ovalbumin-induced inflammation assessed inhibition of neutrophil infiltration in bronchoalveolar lavage at 0.3 mg/kg, it administered 1 hr before ovalbumin aerosol challenge and measured 24 hrs post challenge by hematology analysis relative to control; type: functional; conditions: inhaled or nasal
[7] = tested on: Rattus norvegicus; experiment: Anti-inflammatory activity in Brown Norway rat model of ovalbumin-induced inflammation assessed inhibition of neutrophils infiltration in bronchoalveolar lavage at 0.1 mg/kg, it administered 1 hr before ovalbumin aerosol challenge and measured 24 hrs post challenge by hematology analysis relative to control; type: functional; conditions: inhaled or nasal
[8] = AUC in Wistar rat lung at 0.3 mg/kg, it administered as suspension; type: ADME, organism-based; conditions: in vivo, inhaled_or_intranasal
[9] = Half life in Wistar rat at 1 mg/kg, iv; type: ADME, organism-based; conditions: in vivo
[10] = tested on: Rattus norvegicus; experiment: Anti-inflammatory activity in Brown Norway rat model of ovalbumin-induced inflammation assessed inhibition of eosinophil infiltration in bronchoalveolar lavage at 0.1 mg/kg, it administered 1 hr before ovalbumin aerosol challenge and measured 24 hrs post challenge by hematology analysis relative to control; type: functional; conditions: inhaled or nasal
[11] = Cmax in Wistar rat lung at 0.3 mg/kg, it administered as suspension; type: ADME, organism-based; design: dose 0.3 mg/kg; conditions: inhaled or intranasal
[12] = Ratio of AUC in lung to plasma of Wistar rat at 0.015 mg/kg, it administered as solution; type: ADME, organism-based; conditions: other tissue, inhaled_or_intranasal
[13] = AUC in Wistar rat plasma at 0.015 mg/kg, it administered as solution; type: ADME, organism-based; conditions: inhaled or intranasal
[14] = Thermodynamic aqueous solubility of the compound at pH 7.4; type: physicochemical; conditions: buffer, read-out: Therm_solubility
[15] = molecular target: PI3-kinase p110-delta/p85-alpha (Homo sapiens, UniProt O00329)
Sequence of PI3-kinase p110-delta/p85-alpha (P27986 whole entry, one chain of several): as the sequence (P27986 whole entry) above
Description: Inhibition of recombinant human N-terminal His-tagged full length p110delta/recombinant human full length p85alpha using PIP2 as substrate preincubated for 30 mins followed by substrate addition by HTRF assay

[16] = AUC in Wistar rat at 1 mg/kg, iv; type: ADME, organism-based; conditions: in vivo
[17] = Oral bioavailability in Wistar rat at 1 mg/kg; type: ADME, organism-based; conditions: in vivo
[18] = Ratio of AUC in lung to plasma of Wistar rat at 0.3 mg/kg, it administered as suspension; type: ADME, organism-based; conditions: other tissue, inhaled_or_intranasal
[19] = Drug metabolism in human liver microsomes assessed as disappearance of parent compound at 5 uM after 30 mins in presence of NADPH by UPLC-MS/MS analysis; type: ADME, microsome; conditions: read-out: Drug metabolism
[20] = AUC in Wistar rat lung at 0.015 mg/kg, it administered as solution; type: ADME, organism-based; conditions: in vivo, inhaled_or_intranasal
[21] = molecular target: PI3-kinase p110-alpha/p85-alpha (Homo sapiens, UniProt P42336)
Sequence of PI3-kinase p110-alpha/p85-alpha (P27986 whole entry): as above
Sequence of PI3-kinase p110-alpha/p85-alpha (P42336 whole entry): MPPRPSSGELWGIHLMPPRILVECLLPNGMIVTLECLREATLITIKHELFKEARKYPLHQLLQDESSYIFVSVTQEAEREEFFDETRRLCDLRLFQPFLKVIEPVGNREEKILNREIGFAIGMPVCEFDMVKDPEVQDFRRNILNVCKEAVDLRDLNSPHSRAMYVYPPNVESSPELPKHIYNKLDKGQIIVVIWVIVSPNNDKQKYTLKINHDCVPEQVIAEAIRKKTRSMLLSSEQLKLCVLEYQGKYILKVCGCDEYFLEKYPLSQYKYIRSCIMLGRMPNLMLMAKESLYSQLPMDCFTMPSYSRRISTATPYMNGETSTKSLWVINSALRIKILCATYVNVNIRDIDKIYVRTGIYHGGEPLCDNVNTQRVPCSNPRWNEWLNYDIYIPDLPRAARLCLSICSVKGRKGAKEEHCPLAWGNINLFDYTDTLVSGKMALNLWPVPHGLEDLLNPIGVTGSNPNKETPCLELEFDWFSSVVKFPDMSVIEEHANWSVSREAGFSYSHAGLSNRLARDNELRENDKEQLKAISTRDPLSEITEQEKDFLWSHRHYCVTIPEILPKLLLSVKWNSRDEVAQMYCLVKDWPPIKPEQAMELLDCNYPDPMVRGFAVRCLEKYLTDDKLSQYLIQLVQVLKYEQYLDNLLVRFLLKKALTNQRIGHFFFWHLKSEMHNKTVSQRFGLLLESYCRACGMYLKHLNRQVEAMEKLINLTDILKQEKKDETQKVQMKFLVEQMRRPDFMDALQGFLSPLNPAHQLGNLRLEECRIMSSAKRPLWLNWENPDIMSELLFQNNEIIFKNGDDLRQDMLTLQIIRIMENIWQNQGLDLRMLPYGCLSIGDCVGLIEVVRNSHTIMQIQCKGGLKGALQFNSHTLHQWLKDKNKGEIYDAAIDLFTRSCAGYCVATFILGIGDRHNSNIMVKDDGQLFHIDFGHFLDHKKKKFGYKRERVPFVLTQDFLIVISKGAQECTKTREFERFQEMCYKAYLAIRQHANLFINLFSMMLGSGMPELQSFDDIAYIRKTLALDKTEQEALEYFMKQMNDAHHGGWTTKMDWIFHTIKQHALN
Description: Inhibition of recombinant human N-terminal His6-tagged full length p110alpha/recombinant human full length p85alpha using PIP2 as substrate preincubated for 30 mins followed by substrate addition by HTRF assay

[22] = AUC in Wistar rat plasma at 0.3 mg/kg, it administered as suspension; type: ADME, organism-based; conditions: inhaled or intranasal
[23] = Cmax in Wistar rat at 1 mg/kg, iv; type: ADME, organism-based; design: dose 1 mg/kg, route intravenous; conditions: in vivo
[24] = Drug metabolism in rat liver microsomes assessed as disappearance of parent compound at 5 uM after 30 mins in presence of NADPH by UPLC-MS/MS analysis; type: ADME, microsome; conditions: read-out: Drug metabolism
[25] = Apparent permeability of the compound at 20 uM by PAMPA assay; type: ADME
[26] = molecular target: Phosphatidylinositol 4,5-bisphosphate 3-kinase catalytic subunit gamma isoform (Homo sapiens, UniProt P48736); experiment: Inhibition of recombinant human N-terminal His6-tagged full length p110gamma using PIP2 as substrate preincubated for 30 mins followed by substrate addition by HTRF assay
[27] = tested on: Rattus norvegicus; experiment: fCmax in Brown Norway rat model of ovalbumin-induced inflammation assessed inhibition of eosinophil infiltration in bronchoalveolar lavage at 0.3 mg/kg, it administered 1 hr before ovalbumin aerosol challenge and measured 24 hrs post challenge by hematology analysis relative to control; type: organism-based; conditions: in vivo, inhaled_or_intranasal
[28] = Protein binding in rat plasma at 1 uM by equilibrium dialysis; type: ADME, cell-free; conditions: read-out: PPB (converted)
[29] = Volume of distribution at steady state in Wistar rat at 1 mg/kg, iv; type: ADME, organism-based; conditions: in vivo, read-out: Vdss
[30] = Cmax in Wistar rat plasma at 0.015 mg/kg, it administered as solution; type: ADME, organism-based; design: dose 0.015 mg/kg; conditions: inhaled or intranasal
[31] = Half life in Wistar rat plasma at 0.015 mg/kg, it administered as solution; type: ADME, organism-based; conditions: inhaled or intranasal
[32] = Half life in Wistar rat plasma at 0.3 mg/kg, it administered as suspension; type: ADME, organism-based; conditions: inhaled or intranasal
[33] = Clearance in Wistar rat at 1 mg/kg, iv; type: ADME, organism-based; conditions: in vivo
[34] = molecular target: Voltage-gated inwardly rectifying potassium channel KCNH2 (Homo sapiens, UniProt Q12809); experiment: Inhibition of human ERG up to 10 uM
Sequence of Voltage-gated inwardly rectifying potassium channel KCNH2 (Q12809 whole entry): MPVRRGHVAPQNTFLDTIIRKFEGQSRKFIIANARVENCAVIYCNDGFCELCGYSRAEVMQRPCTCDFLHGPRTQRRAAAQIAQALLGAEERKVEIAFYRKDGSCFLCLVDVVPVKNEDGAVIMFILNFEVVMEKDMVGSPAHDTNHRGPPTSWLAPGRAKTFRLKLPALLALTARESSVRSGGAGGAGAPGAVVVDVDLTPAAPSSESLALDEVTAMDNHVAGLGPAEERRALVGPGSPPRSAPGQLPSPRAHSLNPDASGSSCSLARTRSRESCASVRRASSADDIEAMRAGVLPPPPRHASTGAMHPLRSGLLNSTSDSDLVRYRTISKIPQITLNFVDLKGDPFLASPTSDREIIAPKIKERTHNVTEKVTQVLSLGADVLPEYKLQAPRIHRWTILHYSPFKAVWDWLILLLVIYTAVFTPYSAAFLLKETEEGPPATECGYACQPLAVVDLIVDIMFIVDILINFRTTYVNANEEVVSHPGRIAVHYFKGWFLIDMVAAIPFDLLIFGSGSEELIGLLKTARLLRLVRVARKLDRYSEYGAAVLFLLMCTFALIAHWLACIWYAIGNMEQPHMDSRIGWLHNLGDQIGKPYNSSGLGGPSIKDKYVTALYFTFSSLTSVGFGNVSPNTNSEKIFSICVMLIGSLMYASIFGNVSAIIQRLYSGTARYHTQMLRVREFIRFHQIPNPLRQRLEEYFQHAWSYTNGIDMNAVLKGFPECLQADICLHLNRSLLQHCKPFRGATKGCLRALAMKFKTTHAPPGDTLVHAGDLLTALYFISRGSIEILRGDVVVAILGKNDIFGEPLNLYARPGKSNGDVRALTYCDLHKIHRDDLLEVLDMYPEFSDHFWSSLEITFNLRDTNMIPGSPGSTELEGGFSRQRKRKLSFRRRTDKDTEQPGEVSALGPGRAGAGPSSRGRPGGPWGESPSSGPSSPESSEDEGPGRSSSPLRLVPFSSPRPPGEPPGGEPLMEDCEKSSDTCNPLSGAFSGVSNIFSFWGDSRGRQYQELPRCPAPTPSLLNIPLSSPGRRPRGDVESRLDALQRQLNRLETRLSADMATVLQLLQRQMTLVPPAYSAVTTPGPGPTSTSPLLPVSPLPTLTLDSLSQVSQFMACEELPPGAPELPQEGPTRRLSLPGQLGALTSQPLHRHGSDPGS

[35] = Cmax in Wistar rat lung at 0.015 mg/kg, it administered as solution; type: ADME, organism-based; design: dose 0.015 mg/kg; conditions: inhaled or intranasal
[36] = molecular target: T2, Phosphatidylinositol 4,5-bisphosphate 3-kinase catalytic subunit delta isoform (Homo sapiens, UniProt O00329); experiment: Inhibition of PI3Kdelta in human THP-1 cells assessed as reduction in M-CSF-stimulated AKT phosphorylation at Thr308 preincubated for 30 mins followed by M-CSF addition for 3 mins by ELISA; type: cell-based
T2 sequence (O00329 whole entry): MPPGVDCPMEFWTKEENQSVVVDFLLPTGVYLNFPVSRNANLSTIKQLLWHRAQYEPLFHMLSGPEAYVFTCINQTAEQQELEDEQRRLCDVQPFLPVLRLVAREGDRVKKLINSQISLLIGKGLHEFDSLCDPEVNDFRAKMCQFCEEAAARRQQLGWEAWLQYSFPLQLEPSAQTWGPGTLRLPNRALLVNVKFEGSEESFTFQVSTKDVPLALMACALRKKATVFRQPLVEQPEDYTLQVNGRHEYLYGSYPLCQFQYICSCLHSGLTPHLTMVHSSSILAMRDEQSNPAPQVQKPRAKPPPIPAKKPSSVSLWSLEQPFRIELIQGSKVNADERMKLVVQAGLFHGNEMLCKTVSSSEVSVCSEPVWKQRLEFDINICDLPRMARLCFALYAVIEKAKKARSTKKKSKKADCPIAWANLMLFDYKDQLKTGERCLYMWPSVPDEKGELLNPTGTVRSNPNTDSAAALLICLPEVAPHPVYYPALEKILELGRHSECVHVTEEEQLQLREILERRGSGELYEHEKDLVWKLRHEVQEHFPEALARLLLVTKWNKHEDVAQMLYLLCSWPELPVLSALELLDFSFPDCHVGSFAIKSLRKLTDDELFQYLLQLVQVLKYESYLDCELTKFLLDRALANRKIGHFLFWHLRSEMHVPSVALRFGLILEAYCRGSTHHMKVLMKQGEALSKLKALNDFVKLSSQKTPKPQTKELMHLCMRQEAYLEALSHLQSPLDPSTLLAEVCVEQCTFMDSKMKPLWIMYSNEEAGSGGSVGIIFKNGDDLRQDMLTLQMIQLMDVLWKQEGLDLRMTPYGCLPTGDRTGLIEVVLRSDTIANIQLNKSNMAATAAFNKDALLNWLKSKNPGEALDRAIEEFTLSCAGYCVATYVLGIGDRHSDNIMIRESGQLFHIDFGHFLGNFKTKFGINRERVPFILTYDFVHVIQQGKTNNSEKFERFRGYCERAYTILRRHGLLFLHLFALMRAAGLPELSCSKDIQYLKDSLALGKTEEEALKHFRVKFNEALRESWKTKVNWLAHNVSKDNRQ

[37] = tested on: Rattus norvegicus; experiment: Anti-inflammatory activity in Brown Norway rat model of ovalbumin-induced inflammation assessed inhibition of eosinophil infiltration in bronchoalveolar lavage at 0.3 mg/kg, it administered 1 hr before ovalbumin aerosol challenge and measured 24 hrs post challenge by hematology analysis relative to control; type: functional; conditions: inhaled or nasal
[38] = Drug metabolism in rat liver microsomes assessed as disappearance of parent compound at 5 uM preincubated for 3 mins followed UDPG addition and measured after 120 mins by UPLC-MS/MS analysis; type: ADME, microsome; conditions: read-out: Drug metabolism
[39] = Half life in Wistar rat lung at 0.015 mg/kg, it administered as solution; type: ADME, organism-based; conditions: inhaled or intranasal

Structure (SMILES): Cc1ccccc1-n1c(CN2CNc3c(N)ncnc32)nc2cccc(C)c2c1=O
- IC50 [1]: 130 nM

Structure (SMILES): Cc1ccn2nc([C@H](C)Nc3ncnc4[nH]cc(-c5cc(NS(C)(=O)=O)cc6[nH]ccc56)c34)n(-c3ccccc3)c(=O)c12
- IC50 [2]: 10 nM
- metabolised at 2 h, 5 µM [3]: 30%
- Cmax [4]: 16400 ng/mL
- half-life [5]: 4.5 h
- inhibition in vivo at 0.3 mg/kg [6]: 77%
- inhibition in vivo at 0.1 mg/kg [7]: 42%
- AUC [8]: 459.6 µg·h/g
- half-life [9]: 1.7 h
- inhibition in vivo at 0.1 mg/kg [10]: 21%
- Cmax [11]: 73300 ng/g
- Ratio [12]: 2925
- AUC [13]: 5.3 ng·h/mL
- solubility thermodynamic [14]: 3 µg/mL (≈ 5.05 µM)
- IC50 [15]: 0.5 nM
- AUC [16]: 171 ng·h/mL
- bioavailability [17]: 1%
- Ratio [18]: 4763
- metabolised at 0.5 h, 5 µM [19]: 68%
- AUC [20]: 15.5 µg·h/g
- IC50 [21]: 1900 nM
- AUC [22]: 96.5 ng·h/mL
- Cmax [23]: 455 ng/mL
- metabolised at 0.5 h, 5 µM [24]: 32%
- Papp at 20 µM [25]: 0.2 ×10⁻⁶ cm/s
- IC50 [26]: 36 nM
- fCmax [27]: 0.3 nM
- fraction unbound at 1 µM [28]: 0.011
- Vd [29]: 5.2 L/kg
- Cmax [30]: 1.4 ng/mL
- half-life [31]: 3.2 h
- half-life [32]: 3.2 h
- clearance [33]: 96 mL/min/kg
- inhibition (INH) [34]: Not Active
- Cmax [35]: 3400 ng/g
- IC50 [36]: 2.7 nM
- inhibition in vivo at 0.3 mg/kg [37]: 55%
- metabolised at 2 h, 5 µM [38]: 10%
- half-life [39]: 2.8 h
